From paper PMC9861180, “Nintedanib-αVβ6 Integrin Ligand Conjugates Reduce TGFβ-Induced EMT in Human Non-Small Cell Lung Cancer” (International Journal of Molecular Sciences, 2023)
Entries after “also recorded” stand apart in the source; their conditions may differ.

Legend:
[1] = tested on: α-smooth muscle actin (α-SMA); assay: α-smooth muscle actin protein expression, Western blot; format: cell-based, human; conditions: TGFβ-treated A549 cells, 5 μM, 24 h
Method: Data are expressed as means ± SEM of fold increment compared to untreated cells normalized to α-tubulin.
Western blot analysis was performed on whole-cell lysates of A549 cells, exposed for 48 h to TGFβ treatment and subsequently exposed to 5 µM concentrations of different compounds. After 24 h incubation, media were rapidly removed and cell monolayers were lysed as previously described in RIPA lysis buffer, with the addition of proteinase inhibitor cocktail (04693124001 Roche Merk Life Science S.r.l., Milano, Italy) for 30 min in ice [35]. Protein content was quantified, and forty-fifty micrograms of total proteins were separated on Bolt® Bis-Tris Plus gels 4–12% (Life Technologies, Monza, Italy). Fractionated proteins were transferred from the gel to a PVDF nitrocellulose membrane using iBlot 2 system (Life Technologies, Monza, Italy). Membranes were blocked for 5 min at room temperature, with EveryBlot Biorad blocking buffer (Life Technologies, Monza, Italy). […] The protein bands were analyzed by the Odyssey Infrared Imaging System (Lycor Bioscience) using software for protein quantification. […]

[2] = tested on: tumor spheroids of TGFβ-treated A549 cells and murine L929 fibroblasts; assay: Inhibition of 3D tumor spheroid growth; format: cell-based, human; conditions: 5 µM, 72 h, vs untreated spheroids
Method: Heterogeneous spheroids of tumor cells and fibroblasts were generated using the hanging drop technique to mimic the complex three-dimensional environment of tumor tissues. […] Next, the fluorescence intensities associated with each cell population were analyzed as previously described.
Hanging drop tumor spheroids were prepared starting from 1:1 mixed cell population (1000 cells/25μL) of TGF𝛽-treated A549 cells and murine L929 fibroblasts. […] (C) Quantitative analysis of inhibition of 3D growth and (D) 3D spheroid internalization of the compounds after 72 h exposure. Data are representative of three independent experiments (n = 6) and expressed as means ± SEM. * p < 0.05 vs. untreated spheroids.
A549 cells, exposed for 48 h to TGFβ treatment, were mixed in a 1:1 ratio with murine L929 fibroblast (40,000/mL) in order to obtain 3D multicellular tumor spheroids (MCTS) resembling cellular heterogenicity of the neoplastic lesion. […] After one week, multicellular tumor spheroids were completely formed. Tumor spheroids were next used in different experimental procedures. […] For 3D growth inhibition, spheroids were placed on 2% agarose coated dishes in complete medium containing the different treatments at 5 µM concentration. Spheroid areas were analysed and compared to time 0 and used to evaluate the inhibition of 3D growth (yellow lines). Images of all spheroids were taken daily using the EVOS XL Core Imaging System with a 10x objective (Thermofisher Scientific, Waltham, MA, USA ). All images were analysed using the open-source software ImageJ (1.52a, National Institutes of Health, Bethesda, MD, USA).

K562 cells = assay: Cell internalization by flow cytometry, αvβ6-negative K562; format: cell-based, human; conditions: 5 µM
Excerpt: In these cells, 74% of cells were positive after exposure to compound 1, whilst after exposure to compounds 2 and 3, positive cells ranged between 43.8 and 49% (Figure 4A). […] In addition, we investigated the internalization in αvβ6-negative K562 cells. […] Finally, two other αvβ6 integrin-expressing cell lines were used to evaluate the internalization of these compounds, namely the human melanoma cells SSM2c (Figure S4B) and the L929 murine fibroblasts (Figure S5B).
Briefly, A549 cells were seeded in standard medium (2 × 10^6 cells/100 mm Petri dishes, Sarstedt), and after adhesion, cells were grown in the presence or in the absence of TGFβ (10 ng/mL) for 48 h. […] After 24 h, cells were gently detached using Accutase (ECB3056D, Euroclone, Pero, Milano, Italy) or trypsin and the fluorescence, associated with different cell populations, was evaluated using the BV480 channel of the FACSCanto BD instrument (using 405 nm laser). Untreated cells were used as the negative control. The same procedure was applied to evaluate the internalization in K562, SSM2c, and L929 cells.
3. Expression of αvβ6 integrin receptor in K562 human erythroleukemic cells and internalization of conjugated compounds or nintedanib
Figure S3. Expression of αvβ6 integrin receptor in K562 human erythroleukemia cells (A). […]
assessed by flow cytometry measurements at 5 µM concentration. […]
as assessed by flow cytometry. […]

TGFβ-treated A549 cells [3] = assay: F-actin cytoskeleton by confocal analysis (rhodamine-phalloidin); format: cell-based, human; conditions: 5 μM, 24 h
Method: After incubation, cells were fixed and processed for fluorescence confocal imaging. The cell cytoskeleton was stained with rhodamine-conjugated phalloidin. Image dimensions: 180 × 180 μm, scale bar 50 μm. Experiments were performed at least three times. (C) Quantification of disassembled cytoskeleton expressed as the percentage of cells with point-like fluorescence signals/total cells per field. Data are representative of three independent experiments. * p < 0.05, and ** p < 0.001 vs. TGFβ treated cells.
A549 cells, exposed for 48 h to TGFβ treatment, were grown on fibronectin-coated (10 µg/mL) (sc-29011 SantaCruz, D.B.A., Milano Italy) glass coverslips in 6-well plates for 2 h, after which adherent cells were exposed to the different treatments, in the absence of FCS, for 24h. After incubation, the culture medium was removed, cells were washed with PBS, and fixed 30 min at 4 °C with 3.7% paraformaldehyde. Cells were permeabilized for 15 min with PBS 0.1% Tryton X-100 at room temperature, and then incubated 1 h at room temperature with blocking buffer (0.1% Tryton X-100 and 5.5% horse serum PBS). […] A single composite image was obtained by superimposition of 20 optical sections for each sample analyzed.

[4] = tested on: tumor spheroids of TGFβ-treated A549 cells and murine L929 fibroblasts; assay: Tumor spheroid 2D flat surface migration and growth; format: cell-based, human; conditions: 5 µM, fibronectin-coated flat surface
Method: Heterogeneous spheroids of tumor cells and fibroblasts were also used to evaluate the ability of the compounds to inhibit 2D flat surface migration and growth once the spheroids were allowed to attach to a suitable surface (Figure 8).
Hanging drop tumor spheroids were allowed to spread on a 2D fibronectin-coated flat surface. […] Data are representative of three independent experiments (n = 6) and expressed as means ± SEM. * p < 0.05 vs. untreated spheroids.
A549 cells, exposed for 48 h to TGFβ treatment, were mixed in a 1:1 ratio with murine L929 fibroblast (40,000/mL) in order to obtain 3D multicellular tumor spheroids (MCTS) resembling cellular heterogenicity of the neoplastic lesion. […] After one week, multicellular tumor spheroids were completely formed. Tumor spheroids were next used in different experimental procedures. We evaluated 2D flat surface inhibition of migration and growth, and the inhibition of 3D growth. For 2D flat surface migration and growth inhibition assays, the spheroids were placed on regular culture dishes and allowed to spread and grow in complete medium containing different compounds at 5 µM concentration. The areas of cell spreading were used as parameters for migration (red lines), while the areas of the spheroid core were used as parameters for 2D growth (yellow lines). For 3D growth inhibition, spheroids were placed on 2% agarose coated dishes in complete medium containing the different treatments at 5 µM concentration. Spheroid areas were analysed and compared to time 0 and used to evaluate the inhibition of 3D growth (yellow lines). Images of all spheroids were taken daily using the EVOS XL Core Imaging System with a 10x objective (Thermofisher Scientific, Waltham, MA, USA ). All images were analysed using the open-source software ImageJ (1.52a, National Institutes of Health, Bethesda, MD, USA).

E-cadherin = E-cadherin expression, Western blot; format: cell-based, human; conditions: TGFβ-treated A549 cells, 5 μM, 24 h
Method: Left panel, representative Western blot of E-cadherin protein expression.
Western blot analysis was performed on whole-cell lysates of A549 cells, exposed for 48 h to TGFβ treatment and subsequently exposed to 5 µM concentrations of different compounds. After 24 h incubation, media were rapidly removed and cell monolayers were lysed as previously described in RIPA lysis buffer, with the addition of proteinase inhibitor cocktail (04693124001 Roche Merk Life Science S.r.l., Milano, Italy) for 30 min in ice [35]. Protein content was quantified, and forty-fifty micrograms of total proteins were separated on Bolt® Bis-Tris Plus gels 4–12% (Life Technologies, Monza, Italy). Fractionated proteins were transferred from the gel to a PVDF nitrocellulose membrane using iBlot 2 system (Life Technologies, Monza, Italy). Membranes were blocked for 5 min at room temperature, with EveryBlot Biorad blocking buffer (Life Technologies, Monza, Italy). Subsequently, the membranes were probed at 4 °C overnight with appropriate primary antibodies diluted in a solution of 1:1 Odyssey blocking buffer/T-PBS buffer, washed four times with PBS-Tween 0.1% solution, and probed with the secondary IRDye antibodies according to manufacturering instructions. The protein bands were analyzed by the Odyssey Infrared Imaging System (Lycor Bioscience) using software for protein quantification. […]

TGFβ-treated A549 cells [5] = assay: Clonogenic assay; format: cell-based, human; conditions: sorted fluorescence-positive TGFβ-treated A549 cells after 5 μM 24 h; 2 weeks growth
Method: (A) After incubation, cells were sorted (BDMelody) and isolated cells from the selected population (indicated as P4) were seeded at low density (1000 cells/6 well petri dishes). (B) Number of colonies obtained after 2 weeks growth in standard media. (C) Quantification of colonies.
A549 lung adenocarcinoma cells were grown in the presence of TGFβ for 48 h. […] At the end of the incubation, cells were sorted using a fluorescence activated cell sorter (Melody, Becton Dickinson, Bioscience, Eysins, Switzerland). […] Activation of the labelled cells was provided by the violet laser (ex = 405 nm) while sorting of the activated cells was performed by their emitted wavelength at 480 nm (detection filter 450/50, using the BV480 channel). Isolated cells (1 × 10^3) were seeded in a FN-coated 6 well dishes. These isolated cells were cultured for 2 weeks. The medium was changed every 4 days until the emergence of colonies. The colonies were fixed and stained with Diff-Quick solution.

TGFβ-treated A549 cells [6] = assay: Invasion assay through fibronectin-coated filters; format: cell-based; conditions: Homo sapiens, 24 h, read-out: migration inhibition (invasiveness) with respect to control
Method: The first assay envisaged the evaluation of cellular invasiveness of TGFβ-treated A549 cells by measuring the capacity of cells to migrate through fibronectin-coated filters.
Cells were allowed to migrate towards fibronectin-coated filters (10 μg/μL). Right panel, quantification of invasiveness. Data are percentages of migrated cells compared to untreated cells and expressed as mean value ± SEM of at least three independent experiments. * p < 0.05 and ** p < 0.001 vs. untreated cells. […] Experiments were performed at least three times.
Invasiveness of A549 cells was determined in vitro on fibronectin-precoated polycarbonate inserts (Sarstedt 83.3932.800, 8µm pore size, 0.3 cm^2 growth surface). Briefly, 50 µL of 10 μg/mL of fibronectin solution were seeded on each insert and allowed to dry in sterile conditions (1.6 µg/cm^2). A549 human lung carcinoma cells were grown in the presence of TGFβ for 48 h. After incubation, 3.5 × 10^4 cells were exposed to the different compounds, in serum-free medium (at 5 µM concentration), seeded in the upper compartment of the insert, and were free to perform in the absence of any chemoattractant. Inserts were incubated for 24 h at 37 °C in 10% CO2 in air. […] Photographs of randomly chosen fields were taken, and migrated cells were counted in 4 field/photograph.

TGFβ-treated A549 cells [7] = assay: cells; format: cell-based, human
Method: A549 cell viability was assessed using MTT (3-(4,5-dimethylthiazol-2-yl)-2,5-diphenyltetrazolium bromide) tetrazolium reduction assay (M5655, Sigma Aldrich, Milan, Italy), as described in [58]. Briefly, A549 cells were treated for 48 h in complete medium with TGFβ (10 ng/mL). Next, cells (2.5 × 10^3) were plated into 96-multiwell plates in 100 µL of complete medium. After adhesion, the compounds were added to the medium at different concentrations. After 24 h exposure, the medium was replaced with 100 µL MTT reagent in each well, and plates were incubated at 37 °C. After 2 h, MTT was removed, and the blue MTT–formazan product was solubilized with dimethyl sulfoxide (DMSO, Sigma Aldrich). The absorbance of the formazan solution was read at 595 nm using the microplate reader (Bio-Rad, Milan, Italy). Inhibition of cell proliferation was calculated by the IC50 calculator (AAT Bioquest, Inc., Pleasanton, CA, USA, https://www.aatbio.com/ (accessed on 1 July 2022)).

## COC(=O)c1ccc2c(c1)NC(=O)/C2=C(\Nc1ccc(N(C)C(=O)CN2CCN(C)CC2)cc1)c1ccccc1 [nintedanib, Nintedanib]
[1]
  α-SMA protein expression: reduced by half
[2]
  inhibition of 3D spheroid growth: inhibited significantly
K562 cells
  fluorescence-positive cells (compound internalization): 95–100%
TGFβ-treated A549 cells [3]
  F-actin bundle disassembly: more significant reduction in the assembly of F-actin filaments
[4]
  2D flat surface migration of tumor spheroids: significantly impaired; also recorded: strong inhibition
  2D growth of tumor spheroids (spheroid core): significantly impaired
E-cadherin
  E-cadherin expression: enhanced
TGFβ-treated A549 cells [5]
  reduction of colony formation compared to untreated cells: 50%
TGFβ-treated A549 cells [6]
  inhibition at 5 µM: 80%
TGFβ-treated A549 cells [7]; 0.5-50 μM, 24 h (Figure S8)
  inhibition of cell proliferation (in words): concentration-dependent inhibition
TGFβ-treated A549 cells [7]; Homo sapiens, A549, 24 h, read-out: IC50, inhibition of cell proliferation (MTT)
  IC50: 7.5 µM
TGFβ-treated A549 cells [7]; TGFβ-treated A549 cells, concentrations >10 μM
  inhibition of cell proliferation (in words): almost completely inhibited
